In the NIST ThermoML archive (doi:10.1016/j.tca.2014.07.002):
Numbers after ± are expanded uncertainties.

Assay: xn = mol fraction of the nth substance listed
Conditions: 101 kPa, Liquid, x1 = 0.423; for mass density: Buoyancy - hydrostatic balance

O=C([O-])[O-].[Na+].[Na+] [sodium carbonate] + [Cl-].[Na+]
mass density (973 K): 1830 ± 40 kg/m3
viscosity (973 K): 17.02 ± 0.4 mPa·s
mass density (1023 K): 1810 ± 40 kg/m3
viscosity (1023 K): 9.285 ± 0.23 mPa·s
mass density (1073 K): 1800 ± 40 kg/m3
viscosity (1073 K): 5.31 ± 0.14 mPa·s
mass density (1123 K): 1760 ± 40 kg/m3
viscosity (1123 K): 2.468 ± 0.079 mPa·s
mass density (1173 K): 1730 ± 40 kg/m3
viscosity (1173 K): 1.219 ± 0.051 mPa·s
mass density (1223 K): 1720 ± 30 kg/m3
mass density (1273 K): 1680 ± 30 kg/m3
